Measurements published in patent US7138361B2, “Herbicidal heterocycles” (E. I. du Pont de Nemours and Company, priority 2000, dated 2006).

Experiments:
Assay type in all cases: in vivo
[1] = tested on: Nightshade; assay: Test C preemergence
[2] = tested on: Sunflower; assay: Test C preemergence; conditions: Rate 125 g/ha; scale 0 to 100, 0 no effect, 100 complete control
[3] = tested on: Surinam grass (Brachiaria decumbens); assay: Test C preemergence
How it was run: (§1)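 Herbicidal effect is a visual 0–100 score (100 = complete control) assigned versus untreated plants, 12 to 14 days after spraying in the greenhouse. Test compounds were applied in a non-phytotoxic, surfactant-containing solvent.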

[4] = tested on: bermudagrass (Cynodon dactylon); assay: Test C preemergence
How it was run: as §1

[5] = tested on: cocklebur (Xanthium strumarium); assay: Test C preemergence; conditions: preemergence
How it was run: as §1

[6] = tested on: common ragweed (Ambrosia elatior); assay: Test C preemergence
How it was run: as §1

[7] = tested on: corn (Zea mays); assay: Test C preemergence; conditions: preemergence
How it was run: as §1

[8] = tested on: crabgrass (Digitaria sanguinalis); assay: Test C preemergence
How it was run: as §1

[9] = tested on: giant foxtail (Setaria faberii); assay: Test C preemergence
How it was run: as §1

[10] = tested on: goosegrass (Eleusine indica); assay: Test C preemergence
How it was run: as §1

[11] = tested on: johnsongrass (Sorghum halepense); assay: Test C preemergence
How it was run: as §1

[12] = tested on: kochia (Kochia scoparia); assay: Test C preemergence
How it was run: as §1

[13] = tested on: lambsquarters (Chenopodium album); assay: Test C preemergence
How it was run: as §1

[14] = tested on: morningglory (Ipomoea hederacea); assay: Test C preemergence
How it was run: as §1

[15] = tested on: pigweed (Amaranthus retroflexus); assay: Test C preemergence
How it was run: as §1

[16] = tested on: soybean (Glycine max); assay: Test C preemergence
How it was run: as §1

[17] = tested on: velvetleaf (Abutilon theophrasti); assay: Test C preemergence
How it was run: as §1

[18] = tested on: woolly cupgrass (Eriochloa villosa); assay: Test C preemergence
How it was run: as §1

[19] = tested on: yellow nutsedge (Cyperus esculentus); assay: Test C preemergence
How it was run: as §1

[20] = tested on: barnyardgrass (Echinochloa crus-galli); assay: Test C flooded paddy test; conditions: for Barnyardgrass plant response rating: Flooded Paddy, scale 0 to 100, 0 no effect, 100 complete control; for Plant response rating, Barnyardgrass: flooded paddy test, scale 0 to 100 (0 no effect, 100 complete control)
How it was run: (§2)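 Ratings come from visual comparison with control plants after 12 to 14 days in the greenhouse. Each species was at the 2-leaf stage when the flooded paddy was treated. Scores run from 0, meaning no effect, to 100, meaning complete control.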

[21] = tested on: rice (Oryza saliva); assay: Test C flooded paddy test; conditions: for Rice plant response rating: Flooded Paddy, scale 0 to 100, 0 no effect, 100 complete control; for Plant response rating, Rice: flooded paddy test, scale 0 to 100 (0 no effect, 100 complete control)
How it was run: as §2

[22] = tested on: Sunflower; assay: Test C preemergence; conditions: Rate 500 g/ha, visual evaluation after 12 to 14 days
[23] = Rate 125 g/ha, scale 0 to 100, 0 no effect, 100 complete control
[24] = Rate 250 g/ha, scale 0 to 100, 0 no effect, 100 complete control
[25] = preemergence, Rate 62 g/ha, scale 0 to 100
[26] = preemergence, Rate 500 g/ha, visual evaluation after 12 to 14 days
[27] = preemergence, Rate 250 g/ha, scale 0 to 100, 0 no effect, 100 complete control
[28] = Rate 500 g/ha, visual evaluation after 12 to 14 days

CCCC(C)c1ccn(C2CCN(c3cccc(C(F)(F)F)c3)C2=O)n1 (stereo not shown) [Compound 100]
Plant response rating, Nightshade ([1]; Rate 62 g/ha, scale 0 to 100): 0 | Plant response rating, Nightshade [1, 23]: 0 | Plant response rating, Nightshade [1, 24]: 0 | Plant response rating, Sunflower [2]: 0 | Plant response rating, Surinam grass [3, 23]: 0 | Plant response rating, Surinam grass [3, 25]: 0 | Plant response rating (0 to 100), Surinam grass [3, 26]: 30 | Plant response rating, Surinam grass [3, 27]: 0 | Plant response rating, Bermudagrass [4, 23]: 90 | Plant response rating, Bermudagrass [4, 25]: 90 | Plant response rating (0 to 100 where 0 is no effect and 100 is complete control), Bermudagrass [4, 26]: 100 | Plant response rating, Bermudagrass [4, 27]: 100 | Plant response rating, Cocklebur ([5]; Rate 62 g/ha, scale 0 to 100): 0 | Plant response rating (0 to 100), Cocklebur [5, 28]: 0 | Plant response rating, Cocklebur [5, 24]: 0 | Plant response rating, Ragweed, Common [6, 23]: 0 | Plant response rating, Ragweed, Common [6, 25]: 0 | Plant response rating (0 to 100), Ragweed, Common [6, 26]: 0 | Plant response rating, Ragweed, Common [6, 27]: 0 | Plant response rating, Corn ([7]; Rate 62 g/ha, scale 0 to 100): 20 | Plant response rating (0 to 100), Corn [7, 28]: 20 | Plant response rating, Corn [7, 24]: 20 | Plant response rating, Crabgrass [8, 23]: 100 | Plant response rating, Crabgrass [8, 25]: 100 | Plant response rating (0 to 100), Crabgrass [8, 26]: 100 | Plant response rating, Crabgrass [8, 27]: 100 | Plant response rating, Foxtail, Giant [9, 23]: 10 | Plant response rating, Foxtail, Giant [9, 25]: 90 | Plant response rating (0 to 100), Foxtail, Giant [9, 26]: 100 | Plant response rating, Foxtail, Giant [9, 27]: 40 | Plant response rating, Goosegrass [10, 23]: 90 | Plant response rating, Goosegrass [10, 25]: 80 | Plant response rating (0 to 100), Goosegrass [10, 26]: 100 | Plant response rating, Goosegrass [10, 27]: 100 | Plant response rating, Johnsongrass [11, 23]: 90 | Plant response rating, Johnsongrass [11, 25]: 0 | Plant response rating (0 to 100), Johnsongrass [11, 26]: 100 | Plant response rating, Johnsongrass [11, 27]: 90 | Plant response rating, Kochia [12, 23]: 0 | Plant response rating, Kochia [12, 25]: 0 | Plant response rating (0 to 100), Kochia [12, 26]: 100 | Plant response rating, Kochia [12, 27]: 90 | Plant response rating, Lambsquarters [13, 23]: 100 | Plant response rating, Lambsquarters [13, 25]: 90 | Plant response rating (0 to 100), Lambsquarters [13, 26]: 100 | Plant response rating, Lambsquarters [13, 27]: 100 | Plant response rating, Morningglory [14, 23]: 0 | Plant response rating, Morningglory [14, 25]: 0 | Plant response rating (0 to 100), Morningglory [14, 26]: 0 | Plant response rating, Morningglory [14, 27]: 0 | Plant response rating, Pigweed [15, 23]: 0 | Plant response rating, Pigweed [15, 25]: 0 | Plant response rating (0 to 100), Pigweed [15, 26]: 100 | Plant response rating, Pigweed [15, 27]: 20 | Plant response rating, Soybean [16, 23]: 0 | Plant response rating, Soybean [16, 25]: 0 | Plant response rating (0 to 100), Soybean [16, 26]: 0 | Plant response rating, Soybean [16, 27]: 0 | Plant response rating, Velvetleaf [17, 23]: 0 | Plant response rating, Velvetleaf [17, 25]: 0 | Plant response rating (0 to 100), Velvetleaf [17, 26]: 0 | Plant response rating, Velvetleaf [17, 27]: 0 | Plant response rating, Cupgrass, Woolly [18, 23]: 20 | Plant response rating, Cupgrass, Woolly [18, 25]: 0 | Plant response rating (0 to 100), Cupgrass, Woolly [18, 26]: 100 | Plant response rating, Cupgrass, Woolly [18, 27]: 20 | Plant response rating, Nutsedge [19, 23]: 0 | Plant response rating, Nutsedge [19, 25]: 0 | Plant response rating (0 to 100), Nutsedge [19, 26]: 0 | Plant response rating, Nutsedge [19, 27]: 0 | Barnyardgrass plant response rating ([20]; Rate 250 g/ha): 0 | Barnyardgrass plant response rating ([20]; Rate 500 g/ha): 60 | Plant response rating, Barnyardgrass ([20]; Rate 62 g/ha): 0 | Plant response rating, Barnyardgrass ([20]; Rate 125 g/ha): 0 | Rice plant response rating ([21]; Rate 250 g/ha): 50 | Rice plant response rating ([21]; Rate 500 g/ha): 80 | Plant response rating, Rice ([21]; Rate 62 g/ha): 0 | Plant response rating, Rice ([21]; Rate 125 g/ha): 50 | Plant response rating (0 to 100), Sunflower [22]: 0
